{"source": "patent US20200022967A1", "about": "“Use of 2-carboxamide cycloamino urea derivatives in the treatment of EGFR dependent diseases or diseases that have acquired resistance to agents that target EGFR family members” (Novartis AG, priority 2010, published 2020)", "key": {"BT-474 tumors": {"test_system": "BT-474 tumors", "experiment": "BT474 orthotopic breast cancer xenograft, antitumor activity (Example 1)", "format": "in vivo, mice", "description": "Experiments were performed in female HsdNpa:Athymic Nude-nu mice approximately 8-12 weeks of age at treatment start. All animals were housed under Optimized Hygienic conditions in Makrolon type III cages (max. 10 animals per cage) with free access to food and water.\nBT-474 cells, which are human breast ductal carcinoma cells and ErbB2 amplified with a PIK3CA mutation K111N, were grown in DMEM culture medium containing 4.5 g/l glucose supplemented with 10% heat-inactivated FCS, 2 mM L-glutamine, 1 mM sodium pyruvate and incubated at 37° C. in a 5% CO2 humidified atmosphere. Cell culture reagents were purchased from BioConcept (Allschwil, Switzerland).\nBT-474 tumors were established in vivo by injection 3×10^6 cells in 30 μl HBSS (Sigma # H8264) containing 1 mg/ml Matrigel (BD #34234) orthotopically into the 3rd mammary gland on the right side of the animals. The efficacy experiments started when the tumors reached an average size of approximately 130 mm^3 (day 14-16 post cell injection). The PK/PD experiment was performed when the tumors reached a size of 150-250 m m^3 (day 22 after cell injection). On the day of cell injection, a 0.025 17β Estradiol pellent has been implanted subcutaneously on the left flank into each experimental animal under Forene® inhalation narcosis.\nThe Compound was fully dissolved in NMP. Then, PEG300 and liquified Solutol were added (in sequence with vortexing after addition of each reagent). Water was added immediately prior to administration to the animals. Compound A or vehicle was administered orally at a volume of 10 ml/kg.\nTumor volumes were measured with calipers and determined according to the formula: length×diameter^2×π/6. […] Regressions (%) were calculated according to the formula ((mean tumor volume at end of treatment-mean tumor volume at start of treatment)/mean tumor volume at start of treatment)×100. Body weights and tumor volumes were recorded twice a week.\nWhere applicable, data is presented as mean±SEM. For all tests, the level of significance was set at p<0.05. For tumor volumes, comparisons between treatment groups and vehicle control group were done using one-way ANOVA followed by Dunnett's test. The level of significance of body weight change within a group between the start and the end of the treatment period was determined using a paired t-test. Comparisons of delta body weights between treatment and vehicle control groups were performed by a one-way ANOVA followed by a post hoc Dunnett's test.\nIn the first experiment, Compound A was orally administered daily to BT-474 orthotopic xenografts, tumor-bearing nude mice at a dose of 50 mg/kg. […] Compound A administered orally at 50 mg/kg once daily produces a mean tumor change of tumor volume of −29.7±15.6 mm^3 (p<0.01, ANOVA and post-hoc Dunnett's) as compared to vehicle (mean tumor change of 315.1±16.4 mm^3), with a 23.0% regression in the first experiment.\nIn a second experiment, Compound A was orally administered daily to BT-474 orthotopic xenografts, tumor-bearing nude mice at doses of 12.5, 25 and 50 mg/kg. […] (See FIG. 1). Compound A administered orally at 12.5, 25 and 50 mg/kg once daily produces a mean change of tumor volume of 171.8±33.0 mm^3 (p<0.01, ANOVA and post-hoc Dunnett's), 95.5±26.5 mm^3 (p<0.01, ANOVA and post-hoc Dunnett's), and 20.8±15.9 mm^3 (p<0.01, ANOVA and post-hoc Dunnett's) respectively as compared to vehicle (mean change of tumor volume of 557.7±79.0 mm^3) in the second experiment. (See FIG. 3)"}, "NCI-N87 tumors": {"test_system": "NCI-N87 tumors", "experiment": "NCI-N87 xenograft in CB17 SCID mice, Compound A alone and with trastuzumab (Example 4)", "format": "in vivo", "description": "Experiments were performed in female CB17 SCID mice (Fox Chase SCID®, CB17/lcr-Prkdc^scid, Charles River) approximately 7-8 weeks of age and having a body weight (BW) range of 14.7-21.2 g at treatment start. All animals were fed ad libitum water (reverse osmosis, 1 ppm CI) and NIH 31 Modified and Irradiated Lab Diet® consisting of 18.0% crude protein, 5.0% crude fat, and 5.0% crude fiber. The mice were housed on irradiated Enrich-O'cobs™ Laboratory Animal Bedding in static microisolators on a 12-hour light cycle at 21-22° C. and 40-60% humidity.\nNCI-N87 cells (obtained from the American Type Culture Collection), which are of gastric origin and ErbB2 amplified, were maintained as exponentially growing cultures in RPMI-1640 medium supplemented with 10% fetal bovine serum, 2 mM glutamine, 100 units/mL penicillin G sodium, and 100 μg/mL streptomycin sulfate. The tumor cells were cultured in tissue culture flasks in a humid incubator at 37° C., in an atmosphere of 5% CO2 and 95% air. Cells were harvested with 1× trypsin and suspended at a concentration of 5×10^7 cells/mL in cold phosphate-buffered saline with 50% Matrigel. Each mouse was injected subcutaneously in the right flank with 1×10^7 cells (0.2 mL cell suspension). Tumor volumes were measured with calipers and determined according to the formula: width^2×length/2, and tumor weight estimated with the assumption that 1 mg is equivalent to 1 mm^3 of tumor volume. Nine days after tumor implantation (on Day 1 of the study), mice with individual tumor volumes of 126-320 mm^3 were sorted into 12 groups of eight mice with a group mean tumor volume of 231-239 mm^3.\nCompound A was formulated in NMP/PEG300/Solutol HS15/deionized water (10:30:20:40% vol/vol). The Compound was fully dissolved in NMP. Then, PEG300 and liquified Solutol were added (in sequence with vortexing after addition of each reagent). Water was added prior to administration to the animals. Fresh dosing solutions were prepared weekly and stored at 4° C., protected from light.\nTreatments started 9 days post tumor cell implantation and lasted for 30 consecutive days (or until tumor volume=2000 mm^3).\nWhere applicable, data is presented as mean±SEM. Statisticial and graphical analyses was performed with Prism 3.03 (GraphPad) for Windows. For all tests, the level of significance of differences was done using ANOVA, with Bartlett's test; and a post-hoc Dunnett's multiple comparison test compared the mean change for each drub-treated group to the mean for Group 1. […] The significance of differences between the median volume changes for drug-treated groups and Group 1 was analyzed post hoc with Dunn's multiple comparison test. The two-tailed statistical analyses were conducted at P=0.05. Prism summarizes test results as not significant (ns) at P>0.05, significant (symbolized by “*”) at 0.01<P≤0.05, very significant (symbolized by “**”) at 0.001<P≤0.01, and extremely significant (symbolized by “***”) at P≤0.001."}, "[1]": {"conditions": "Group 2 (8 animals): Compound A 12.5 mg/kg p.o. once daily"}, "[2]": {"conditions": "Group 3 (6 animals): Compound A 25 mg/kg p.o. once daily"}, "[3]": {"conditions": "Group 4 (4 animals): Compound A 50 mg/kg p.o. once daily, stopped early"}}, "data": [{"smiles": "Cc1nc(NC(=O)N2CCC[C@H]2C(N)=O)sc1-c1ccnc(C(C)(C)C(F)(F)F)c1", "note": "[Compound A, (S)-Pyrrolidine-1,2-dicarboxylic acid 2-amide 1-({4-methyl-5-[2-(2,2,2-trifluoro-1,1-dimethyl-ethyl)-pyridin-4-yl]-thiazol-2-yl}-amide)]", "values": [{"measurement": "antitumor effect as compared to vehicle", "setting": "BT-474 tumors; 12.5, 25 and 50 mg/kg p.o. once daily, p<0.05 ANOVA", "result": "statistically significant antitumor effect"}, {"measurement": "regression", "setting": "BT-474 tumors; first experiment, 50 mg/kg p.o. once daily", "result": 23.0, "unit": "%"}, {"measurement": "mean change of tumor volume", "setting": "BT-474 tumors; first experiment, 50 mg/kg p.o. once daily, vehicle 315.1±16.4", "result": "−29.7±15.6", "unit": "mm^3"}, {"measurement": "mean change of tumor volume", "setting": "BT-474 tumors; second experiment, 12.5 mg/kg p.o. once daily, vehicle 557.7±79.0", "result": "171.8±33.0", "unit": "mm^3"}, {"measurement": "mean change of tumor volume", "setting": "BT-474 tumors; second experiment, 25 mg/kg p.o. once daily, vehicle 557.7±79.0", "result": "95.5±26.5", "unit": "mm^3"}, {"measurement": "mean change of tumor volume", "setting": "BT-474 tumors; second experiment, 50 mg/kg p.o. once daily, vehicle 557.7±79.0", "result": "20.8±15.9", "unit": "mm^3"}, {"measurement": "Regressions CR (complete regression)", "setting": "NCI-N87 tumors; [1]", "result": "CR: 0"}, {"measurement": "Regressions PR (partial regression)", "setting": "NCI-N87 tumors; [1]", "result": "PR: 0,"}, {"measurement": "T/C or T/T0", "setting": "NCI-N87 tumors; Group 2 (8 animals): Compound A 12.5 mg/kg p.o. once daily, vs G1 ns", "result": 46, "unit": "%"}, {"measurement": "Regressions CR (complete regression)", "setting": "NCI-N87 tumors; [2]", "result": "CR: 0"}, {"measurement": "Regressions PR (partial regression)", "setting": "NCI-N87 tumors; [2]", "result": "PR: 0,"}, {"measurement": "T/C or T/T0", "setting": "NCI-N87 tumors; Group 3 (6 animals): Compound A 25 mg/kg p.o. once daily, vs G1 *", "result": 12, "unit": "%"}, {"measurement": "Regressions CR (complete regression)", "setting": "NCI-N87 tumors; [3]", "result": "CR: 0"}, {"measurement": "Regressions PR (partial regression)", "setting": "NCI-N87 tumors; [3]", "result": "PR: 0,"}, {"measurement": "T/C or T/T0", "setting": "NCI-N87 tumors; Group 4 (4 animals): Compound A 50 mg/kg p.o. once daily, stopped early, vs G1 ne", "result": 81, "unit": "%"}]}]}
